The term IC50 denotes the concentration that inhibits the measured activity by half.

Residue numbers refer to the chain shown, from its start. Values joined by “and” are separate entries in the source; they are usually repeats but may differ in a detail not shown here. Equal entries are not always repeated.

Results on 4 compounds are retold here after paper PMC6073854, “Role of Arginine 117 in Substrate Recognition by Human Cytochrome P450 2J2” (International Journal of Molecular Sciences, 2018).

One series concerns the target T1, CYP2J2-R117K (Homo sapiens, UniProt P51589, R117K).
T1 sequence (P51589 1-502 R117K): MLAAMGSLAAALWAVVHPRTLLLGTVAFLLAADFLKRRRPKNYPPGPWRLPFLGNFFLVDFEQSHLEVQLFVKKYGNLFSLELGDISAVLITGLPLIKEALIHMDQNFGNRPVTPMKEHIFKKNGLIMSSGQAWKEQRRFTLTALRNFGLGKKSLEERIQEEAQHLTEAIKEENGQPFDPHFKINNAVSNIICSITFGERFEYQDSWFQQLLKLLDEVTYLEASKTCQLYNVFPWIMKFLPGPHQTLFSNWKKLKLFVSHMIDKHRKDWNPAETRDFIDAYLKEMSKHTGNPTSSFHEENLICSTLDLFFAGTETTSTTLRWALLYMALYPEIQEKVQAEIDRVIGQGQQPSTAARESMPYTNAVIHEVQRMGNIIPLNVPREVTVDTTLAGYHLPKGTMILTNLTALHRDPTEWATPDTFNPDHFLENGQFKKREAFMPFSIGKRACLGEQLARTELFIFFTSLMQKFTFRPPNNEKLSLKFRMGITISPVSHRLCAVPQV
Nature of the series: biochemical.

The next series has as its target T2, CYP2J2-R117E (Homo sapiens, UniProt P51589, R117E).
T2 sequence (P51589 1-502 R117E): T1 sequence (P51589 1-502 R117K) with K117E
Nature of the series: biochemical.

For the next series, the target named is T3, wild-type CYP2J2 (Homo sapiens, UniProt P51589).
T3 sequence (P51589 1-502): T1 sequence (P51589 1-502 R117K) with K117R
Conditions: cited from earlier work.

The subject of the next series is wild type CYP2J2. Details: method as in PMID 17705402. Conditions: docked model, WT; values previously reported ref 50; cited from earlier work.

`CC(C)(C)c1ccc(C(=O)CCCN2CCC(C(O)(c3ccccc3)c3ccccc3)CC2)cc1` [Terfenadone 1, Terfenadone]: the IC50 against CYP2J2-R117K was approximately 1 µM; on CYP2J2-R117E it was 0.5 µM and 1 µM; at wild-type CYP2J2 it was 0.7 ± 0.1 µM.

For the compound `CCCc1ccc(CCCCN2CCC(C(O)(c3ccccc3)c3ccccc3)CC2)cc1` [Compound 4], the concentration for half-maximal inhibition (IC50) on CYP2J2-R117K was 13.2 ± 0.1 µM; on CYP2J2-R117E, 2.9 ± 0.2 µM; on wild-type CYP2J2, 4.5 ± 0.9 µM.

`CC(C)(C)c1ccc(CCCCN2CCC(C(O)(c3ccccc3)c3ccccc3)CC2)cc1` [Compound 3]: the results for the IC50 against CYP2J2-R117K, on CYP2J2-R117E and on wild-type CYP2J2 were 8.6 ± 0.2 µM, 2.1 ± 0.4 µM and 3.6 ± 0.7 µM, respectively.

Turning to `CCCc1ccc(C(=O)CCCN2CCC(C(O)(c3ccccc3)c3ccccc3)CC2)cc1` [Compound 2], in the series on wild type CYP2J2, the “Fe-C distance, α carbon of R group” value is 4.9 Å; the “Fe-C distance, β carbon of R group” value is 3.8 Å; the “Fe-C distance, γ carbon of R group” value is reported as 4.6 Å. At CYP2J2-R117K, the midpoint of inhibition, the IC50, lay at 1.1 ± 0.2 µM. Also, on CYP2J2-R117E, the IC50 was 1 µM and 0.5 µM. For the same compound, the IC50 at wild-type CYP2J2 was 0.4 ± 0.1 µM.
